Source: patent publication US6566550B2, “Substituted aromatic ethers as inhibitors of glycine transport” (Pfizer Inc, priority 2001, dated 2003)

test system: not given; details: not given

Compound	melting point
CN(CCC(Oc1ccc(Oc2cccc3c2CCCC3)cc1)c1ccc(F)cc1)CC(=O)O (stereo not drawn)	60 to 61 °C
COc1cc(OC(CCN(C)CC(=O)O)c2ccccc2)ccc1Oc1ccccc1 (stereo not drawn)	77.5 °C
Cc1ccc(OC(CCN(C)CC(=O)O)c2ccc(F)cc2)cc1Oc1ccc2c(c1)OCO2 (stereo not drawn)	185 to 188 °C
Cc1ccc(Oc2ccc(OC(CCN(C)CC(=O)O)c3ccc(F)cc3)c(Cl)c2)cc1 (stereo not drawn)	129.3 °C
COc1ccc(Oc2ccc(OC(CCN(C)CC(=O)O)c3ccccc3)cc2OC)cc1 (stereo not drawn)	60.1 °C

Results, then the compound that gave them:

melting point	Compound
55 to 57 °C	COc1cccc(Oc2cc(OC(CCN(C)CC(=O)O)c3ccc(F)cc3)ccc2C)c1 (stereo not drawn)
139.5 °C	COc1cc(OC(CCN(C)CC(=O)O)c2ccc(F)cc2)ccc1Oc1ccccc1 (stereo not drawn)
63 to 65 °C	COc1ccc(Oc2cc(OC(CCN(C)CC(=O)O)c3ccc(F)cc3)ccc2C)cc1 (stereo not drawn)

test system: NMDA receptor; details: effect blocked by a specific NMDA-site antagonist and a glycine-site antagonist; cited from earlier work

Compound	post synaptic current driven by the NMDA receptor
CN(CCC(Oc1ccc(-c2ccccc2)cc1)c1ccc(F)cc1)CC(=O)O (stereo not drawn) [NFPS]	increased the post synaptic current driven by the NMDA receptor
